According to US12559455B2, “Compound as a UBR box domain ligand” (AUTOTAC INC., priority 2020, dated 2026):

How the values were obtained:
UBR1 = molecular target: T1, UBR1 (Rattus norvegicus, UniProt A0A8I5ZK69); assay: Inhibition of muscle cell actin degradation by immunoblotting; format: cell-based; conditions: L6 cell line, compound 5 uM, 24 hours
T1 construct: endogenous in cells; host or cells: L6 rat muscle-derived cells
Procedure: To evaluate the actin degradation of compounds in muscle cells, a L6 cell line, which is a rat muscle-derived cell, was cultured using a DMEM medium containing 10% FBS and 1% streptomycin/penicillin in an incubator in which 5% carbon dioxide was maintained. In order to measure the UBR1 binding strength according to the treatment with a representative compound selected from the present compounds, cells were aliquoted into a 12-well plate. The cells were additionally cultured for 24 hours so as to be completely attached to the surface of the plate. […] To extract proteins from the collected cells, 50 uL of a lysis buffer (20 mM Tris, pH 7.4, 150 mM NaCl, 1% Triton-X-100, 2 mM NaF, 2 mM EDTA, 2 mM b-glycerophosphate, 5 mM sodium orthovanadate, 1 mM PMSF, leupeptin, aprotenin) was injected into each sample, and the cells were lysed. A sample buffer was added to each sample based on the measured total protein concentration, and the mixture was reacted at 100° C. for 5 minutes. After 5 uL was taken from the completely reacted sample and aliquoted into each well of an acrylamide gel, an immunoblotting method was performed, and the experimental results were illustrated in [FIG. 4], [FIG. 5], [FIG. 6], [FIG. 7], [FIG. 8], and [FIG. 9]. For the immunoblotting method, a representative experiment was schematized from three or more independent experiments.

UBR box of Human UBR1 = molecular target: T2, UBR box of Human UBR1 (Homo sapiens, UniProt Q8IWV7); assay: UBR box domain binding by microscale thermophoresis (MST); conditions: RED-NHS labeled UBR1 UBR box protein (Gln97-Pro168), FIGS. 12 to 19
T2 construct: A Gln97-Pro168 portion corresponding to the UBR box of Human UBR1; made in house; host or cells: E. coli
T2 sequence (Q8IWV7 97-168): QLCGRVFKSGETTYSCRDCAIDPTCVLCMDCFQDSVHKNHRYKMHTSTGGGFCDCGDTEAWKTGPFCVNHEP
Procedure: A Gln97-Pro168 portion corresponding to the UBR box of Human UBR1 (UniProt ID: Q81WV7) was cloned into a modified expression vector, and then expressed in E. coli. After affinity chromatography was used, a tag was removed by a protease, and then Gly-His-Met was added to the N-terminal. After ion chromatography was performed, a final UBR box protein of a UBR1 was purified using gel filtration chromatography in a buffer composition of 10 mM NaCl, 20 mM Tris-HCl, 2 mM beta-mercaptoethanol, and pH 7.5.
A dye of the Monolith protein labeling kit RED-NHS 2nd generation (Cat #MO-L011) has an NHS-ester group that forms a covalent bond with primary amines (lysine residues). This dye is optimized for a Monolith-series device equipped with a RED detector. A purified UBR1 UBR box protein was labeled according to the presented protocol using this kit.
Thermophoresis refers to a phenomenon in which particles move due to a temperature gradient. Particles present in a high temperature region have greater kinetic energy than particles present in a low temperature region, and more frequently collide with surrounding particles with greater energy. As a result, particles move from the high temperature region to the low temperature region.
Thermophoresis of proteins is typically different from that of protein-ligand complexes. This is because the binding of the ligand changes its size, electric charge, and solvation energy. […] Therefore, the binding of the UBR1 UBR box protein and the ligand compound was measured using MST, and it was confirmed that the presented ligand binds to the UBR1 UBR box (see FIGS. 12 to 19).

T1 sequence (A0A8I5ZK69 1-1749): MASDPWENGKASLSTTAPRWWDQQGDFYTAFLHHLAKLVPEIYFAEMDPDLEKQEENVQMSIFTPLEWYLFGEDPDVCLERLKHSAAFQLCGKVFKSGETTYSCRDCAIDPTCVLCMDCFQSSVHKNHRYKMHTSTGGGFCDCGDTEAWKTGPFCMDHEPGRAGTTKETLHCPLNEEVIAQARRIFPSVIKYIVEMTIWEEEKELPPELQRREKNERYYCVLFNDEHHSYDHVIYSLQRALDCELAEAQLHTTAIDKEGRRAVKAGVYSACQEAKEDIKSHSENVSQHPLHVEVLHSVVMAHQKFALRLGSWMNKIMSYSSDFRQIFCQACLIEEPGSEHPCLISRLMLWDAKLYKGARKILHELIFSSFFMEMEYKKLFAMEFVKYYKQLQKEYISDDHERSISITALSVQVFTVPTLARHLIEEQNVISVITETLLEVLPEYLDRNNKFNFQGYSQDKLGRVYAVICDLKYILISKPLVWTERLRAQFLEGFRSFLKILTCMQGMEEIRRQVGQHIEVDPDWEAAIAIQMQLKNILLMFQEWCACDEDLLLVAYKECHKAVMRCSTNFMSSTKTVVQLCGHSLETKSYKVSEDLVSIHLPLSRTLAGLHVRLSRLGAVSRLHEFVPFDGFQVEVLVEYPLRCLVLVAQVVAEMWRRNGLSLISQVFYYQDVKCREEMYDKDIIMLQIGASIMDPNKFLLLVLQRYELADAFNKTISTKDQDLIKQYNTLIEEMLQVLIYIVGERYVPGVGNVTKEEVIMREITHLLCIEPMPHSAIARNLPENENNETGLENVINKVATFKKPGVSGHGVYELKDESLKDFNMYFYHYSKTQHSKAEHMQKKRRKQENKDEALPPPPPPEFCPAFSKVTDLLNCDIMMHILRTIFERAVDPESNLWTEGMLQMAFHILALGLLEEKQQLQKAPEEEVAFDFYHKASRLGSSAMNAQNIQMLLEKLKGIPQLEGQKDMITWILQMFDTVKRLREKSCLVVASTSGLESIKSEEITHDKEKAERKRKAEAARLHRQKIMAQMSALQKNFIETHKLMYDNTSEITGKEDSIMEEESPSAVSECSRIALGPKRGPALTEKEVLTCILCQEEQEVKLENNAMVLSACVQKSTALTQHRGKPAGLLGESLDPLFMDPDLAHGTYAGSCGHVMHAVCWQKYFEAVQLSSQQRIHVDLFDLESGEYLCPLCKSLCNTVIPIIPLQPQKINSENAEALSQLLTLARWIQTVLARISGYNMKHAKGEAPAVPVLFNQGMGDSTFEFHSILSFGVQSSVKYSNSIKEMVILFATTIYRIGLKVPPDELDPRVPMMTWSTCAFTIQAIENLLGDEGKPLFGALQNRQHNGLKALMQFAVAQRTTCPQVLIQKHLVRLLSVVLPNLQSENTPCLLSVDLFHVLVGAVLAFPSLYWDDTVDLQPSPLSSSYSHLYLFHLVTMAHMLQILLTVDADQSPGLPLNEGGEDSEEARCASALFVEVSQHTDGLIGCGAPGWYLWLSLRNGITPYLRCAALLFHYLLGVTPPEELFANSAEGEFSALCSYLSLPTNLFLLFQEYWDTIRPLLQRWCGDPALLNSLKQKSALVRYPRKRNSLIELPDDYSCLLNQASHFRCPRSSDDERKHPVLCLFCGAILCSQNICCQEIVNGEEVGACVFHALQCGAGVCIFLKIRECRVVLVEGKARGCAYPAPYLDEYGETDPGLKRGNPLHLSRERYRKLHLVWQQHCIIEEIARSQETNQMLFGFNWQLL

Question: With O=C(NNS(=O)(=O)c1n[nH]c2ccccc12)c1ccc(O)cc1 [Compound 35, N′-(4-hydroxybenzoyl)-1H-indazole-3-sulfonohydrazide] as the compound, how does the “level of ACTA1 compared to the control” value (UBR1) read?
Answer: further increased

Question: For Cc1oc(C(=O)O)cc1S(=O)(=O)NNC(=O)c1ccc(O)cc1 [Compound 45, 4-((2-(4-hydroxybenzoyl)hydrazinyl)sulfonyl)-5-methylfuran-2-carboxylic acid], which “level of ACTA1 compared to the control” value (UBR1) is on record?
Answer: further increased

Question: Which “level of ACTA2 compared to the control” value (UBR1) does the source give for Nc1ccc(S(=O)(=O)NNC(=O)c2c[nH]c3ccccc23)cc1 [Compound 20, 4-amino-N′-(1H-indole-3-carbonyl)benzenesulfonohydrazide] here?
Answer: further increased

Question: For Nc1ccc(S(=O)(=O)NNC(=O)Nc2ccccc2)cc1 [Compound 27, 2-((4-aminophenyl)sulfonyl)-N-phenylhydrazine-1-carboxamide], which “level of ACTA2 compared to the control” value (UBR1) is on record?
Answer: further increased

Question: O=C(NNS(=O)(=O)C1CCNCC1)c1ccc(O)cc1 [Compound 38, N′-(4-hydroxybenzoyl)piperidine-4-sulfonohydrazide] was tested. Which “level of ACTA1 compared to the control” value (UBR1) did it give?
Answer: further increased

Question: O=C(NNS(=O)(=O)c1cc2cccnc2[nH]1)c1ccc(O)cc1 [Compound 47, N′-(4-hydroxybenzoyl)-1H-pyrrolo[2,3-b]pyridine-2-sulfonohydrazide] was tested. Which “level of ACTA1 compared to the control” value (UBR1) did it give?
Answer: further increased

Question: Nc1ccc(CNNC(=O)c2ccc(O)cc2)cc1 [Compound 19, N′-(4-aminobenzyl)-4-hydroxybenzohydrazide] was tested. Which “level of ACTA2 compared to the control” value (UBR1) did it give?
Answer: further increased

Question: Which “level of ACTC1 compared to the control” value (UBR1) does the source give for Cc1nc(S(=O)(=O)NNC(=O)c2ccc(O)cc2)cs1 [Compound 42, N′-(4-hydroxybenzoyl)-2-methylthiazole-4-sulfonohydrazide] here?
Answer: further increased

Question: How did the “level of ACTG2 compared to the control” value (UBR1) turn out when Nc1ccc(S(=O)(=O)NNC(=O)c2cccc3c2CCN3)cc1 [Compound 29, 4-amino-N′-(indoline-4-carbonyl)benzenesulfonohydrazide] was run?
Answer: further increased

Question: For O=C(NNS(=O)(=O)c1ccc([N+](=O)[O-])c(N2CCCC2)c1)c1ccc(O)cc1 [Compound 22, N′-(4-hydroxybenzoyl)-4-nitro-3-(pyrrolidin-1-yl)benzenesulfonohydrazide], which “level of ACTA2 compared to the control” value (UBR1) is on record?
Answer: further increased

Question: NC1CCC(S(=O)(=O)NNC(=O)c2ccc(O)cc2)CC1 [Compound 43, (1S,4S)-4-amino-N′-(4-hydroxybenzoyl)cyclohexane-1-sulfonohydrazide] was tested. Which “level of ACTA1 compared to the control” value (UBR1) did it give?
Answer: further increased

Question: O=C(NNS(=O)(=O)c1ccc(NCCO)cc1)c1ccc(O)cc1 [Compound 11, N′-(4-hydroxybenzoyl)-4-((2-hydroxyethyl)amino)benzenesulfonohydrazide] was tested. Which “binding to UBR1 UBR box (MST)” value (UBR box of Human UBR1) did it give?
Answer: binds

Question: For Nc1ccc(S(=O)(=O)NNC(=O)Cc2ccccc2)cc1 [Compound 34, 4-amino-N′-(2-phenylacetyl)benzenesulfonohydrazide], which “level of ACTA2 compared to the control” value (UBR1) is on record?
Answer: further increased

Question: Which “level of ACTC1 compared to the control” value (UBR1) does the source give for Nc1ccc(S(=O)(=O)NNC(=O)N2CCNCC2)cc1N1CCOCC1 [Compound 41, 4-amino-3-morpholino-N′-(piperazine-1-carbonyl)benzenesulfonohydrazide] here?
Answer: further increased

Question: Nc1ccc(S(=O)(=O)NNC(=O)c2ccc(O)cc2)cc1N1CCCCC1 [Compound 23, 4-amino-N′-(4-hydroxybenzoyl)-3-(piperidin-1-yl)benzenesulfonohydrazide] was tested. Which “level of ACTA2 compared to the control” value (UBR1) did it give?
Answer: further increased

Question: “(1R,4R)-4-amino-N′-(4-hydroxybenzoyl)cyclohexane-1-sulfonohydrazide [Compound 44]” was tested. Which “level of ACTA1 compared to the control” value (UBR1) did it give?
Answer: further increased

Question: Nc1ccc(S(=O)(=O)NNC(=O)c2ccc(-c3ccccc3)cc2)cc1 [Compound 6, N′-([1,1′-biphenyl]-4-carbonyl)-4-aminobenzenesulfonohydrazide] was tested. Which “level of ACTA1 compared to the control” value (UBR1) did it give?
Answer: further increased

Question: How did the “level of ACTG2 compared to the control” value (UBR1) turn out when Nc1ccc(S(=O)(=O)NNC(=O)c2ccc(O)cc2)cc1-c1ccccc1 [Compound 17, 6-amino-N′-(4-hydroxybenzoyl)-[1,1′-biphenyl]-3-sulfonohydrazide] was run?
Answer: further increased

Question: Nc1ccc(S(=O)(=O)NNC(=O)C2Cc3ccccc3C2)cc1 [Compound 31, 4-amino-N′-(2,3-dihydro-1H-indene-2-carbonyl)benzenesulfonohydrazide] was tested. Which “level of ACTG2 compared to the control” value (UBR1) did it give?
Answer: further increased

Question: Which results are given for Cc1ccc(S(=O)(=O)NNC(=O)c2ccc(O)cc2)cc1 [Compound 1, N′-(4-hydroxybenzoyl)-4-methylbenzenesulfonohydrazide]?
Answer: binding to UBR1 UBR box (MST) (UBR box of Human UBR1): binds; level of ACTA1 compared to the control (UBR1): further increased

Question: O=C(NNS(=O)(=O)c1cn[nH]c1)c1ccc(O)cc1 [Compound 24, N′-(4-hydroxybenzoyl)-1H-pyrazole-4-sulfonohydrazide] was tested. Which “level of ACTA2 compared to the control” value (UBR1) did it give?
Answer: further increased

Question: For NC(=O)c1ccc(C(=O)NNS(=O)(=O)c2ccc(N)cc2)cc1 [Compound 18, 4-(2-((4-aminophenyl)sulfonyl)hydrazine-1-carbonyl)benzamide], which “level of ACTA2 compared to the control” value (UBR1) is on record?
Answer: further increased

Question: With Nc1ccc(S(=O)(=O)NNC(=O)c2ccc3c(c2)NCC3)cc1N1CCOCC1 [Compound 39, 4-amino-N′-(indoline-6-carbonyl)-3-morpholinobenzenesulfonohydrazide] as the compound, how does the “level of ACTA1 compared to the control” value (UBR1) read?
Answer: further increased

Question: How did the “level of ACTG2 compared to the control” value (UBR1) turn out when NC(=O)c1ccc(S(=O)(=O)NNC(=O)c2ccc(O)cc2)cc1 [Compound 15, 4-((2-(4-hydroxybenzoyl)hydrazinyl)sulfonyl)benzamide] was run?
Answer: further increased

Question: With Nc1ccc(S(=O)(=O)NNC(=O)c2ccc(O)cc2)cc1N1CCNCC1 [Compound 30, 4-amino-N′-(4-hydroxybenzoyl)-3-(piperazin-1-yl)benzenesulfonohydrazide] as the compound, how does the “level of ACTG2 compared to the control” value (UBR1) read?
Answer: further increased

Question: For O=C(NNS(=O)(=O)C1CCNC1)c1ccc(O)cc1 (stereo not drawn) [Compound 46, N′-(4-hydroxybenzoyl)pyrrolidine-3-sulfonohydrazide], which “level of ACTA1 compared to the control” value (UBR1) is on record?
Answer: further increased

Question: O=C(NNS(=O)(=O)c1cccc2c1CCN2)c1ccc(O)cc1 [Compound 25, N′-(4-hydroxybenzoyl)indoline-4-sulfonohydrazide] was tested. Which “level of ACTA2 compared to the control” value (UBR1) did it give?
Answer: further increased

Question: Which “binding to UBR1 UBR box (MST)” value (UBR box of Human UBR1) does the source give for COc1ccc(S(=O)(=O)NNC(=O)c2ccc(O)cc2)cc1 [Compound 13, N′-(4-hydroxybenzoyl)-4-methoxybenzenesulfonohydrazide] here?
Answer: binds

Question: And the “level of ACTG2 compared to the control” value (UBR1)?
Answer: further increased

Question: With Nc1ccc(S(=O)(=O)NNC(=O)c2cccc3[nH]ccc23)cc1N1CCOCC1 [Compound 28, 4-amino-N′-(1H-indole-4-carbonyl)-3-morpholinobenzenesulfonohydrazide] as the compound, how does the “level of ACTA2 compared to the control” value (UBR1) read?
Answer: further increased

Question: With Nc1cccc(S(=O)(=O)NNC(=O)c2ccc(O)cc2)c1 [Compound 8, 3-amino-N′-(4-hydroxybenzoyl)benzenesulfonohydrazide] as the compound, how does the “binding to UBR1 UBR box (MST)” value (UBR box of Human UBR1) read?
Answer: binds

Question: And the “level of ACTA2 compared to the control” value (UBR1)?
Answer: further increased

Question: Nc1ccc(S(=O)(=O)NNC(=O)N2Cc3ccccc3C2)cc1 [Compound 32, 4-amino-N′-(isoindoline-2-carbonyl)benzenesulfonohydrazide] was tested. Which “level of ACTA2 compared to the control” value (UBR1) did it give?
Answer: further increased

Question: Which “level of ACTA1 compared to the control” value (UBR1) does the source give for Nc1ccc(S(=O)(=O)NNC(=O)c2ccc3c(c2)NCC3)cc1 [Compound 36, 4-amino-N′-(indoline-6-carbonyl)benzenesulfonohydrazide] here?
Answer: further increased

Question: With Nc1ccc(S(=O)(=O)NNC(=O)C2CNc3ccccc32)cc1 (stereo not drawn) [Compound 37, 4-amino-N′-(indoline-3-carbonyl)benzenesulfonohydrazide] as the compound, how does the “level of ACTA1 compared to the control” value (UBR1) read?
Answer: further increased

Question: What does the source list for CC(N)c1ccc(S(=O)(=O)NNC(=O)c2ccc(O)cc2)cc1 (stereo not drawn) [Compound 9, 4-(1-aminoethyl)-N′-(4-hydroxybenzoyl)benzenesulfonohydrazide]?
Answer: binding to UBR1 UBR box (MST) (UBR box of Human UBR1): binds; level of ACTA2 compared to the control (UBR1): further increased

Question: How did the “level of ACTA2 compared to the control” value (UBR1) turn out when O=C(NNS(=O)(=O)c1cccc2[nH]ccc12)c1ccc(O)cc1 [Compound 26, N′-(4-hydroxybenzoyl)-1H-indole-4-sulfonohydrazide] was run?
Answer: further increased
